The target of test [1] is VEGFR2 (KDR) kinase, purified cytoplasmic domain KDR protein (Homo sapiens (Human), UniProt P35968). As to the kind of experiment: VEGFR2 Kinase Assay. It is filed as biochemical. The following applies: 2.7 μM ATP, poly-Glu-Tyr (4:1) substrate, 15 minute incubation at 30° C., ELISA read at 492 nm. As for the experimental part: Biochemical KDR kinase assays were performed in 96 well microliter plates that were coated overnight with 75 μg/well of poly-Glu-Tyr (4:1) in 10 mM Phosphate Buffered Saline (PBS), pH 7.4. The coated plates were washed with 2 mLs per well PBS+0.05% Tween-20 (PBS-T), blocked by incubation with PBS containing 1% BSA, then washed with 2 mLs per well PBS-T prior to starting the reaction. […] Reactions were initiated by the addition 20 ul per well of kinase buffer containing 200-300 ng purified cytoplasmic domain KDR protein (BPS Bioscience, San Diego, Calif.). Following a 15 minute incubation at 30° C., the reactions were washed 2 mLs per well PBS-T. 100 μl of a monoclonal anti-phosphotyrosine antibody-peroxidase conjugate diluted 1:10,000 in PBS-T was added to the wells for 30 minutes. Following a 2 mLs per well wash with PBS-Tween-20, 100 μl of O-Phenylenediamine Dihydrochloride in phosphate-citrate buffer, containing urea hydrogen peroxide, was added to the wells for 7-10 minutes as a colorimetric substrate for the peroxidase. […] IC50 values for compound inhibition were calculated directly from graphs of optical density (arbitrary units) versus compound concentration following subtraction of blank values.
A general note: An ELISA detects its analyte on a solid surface through an enzyme-linked reagent.

Test [2] deals with PDGFRβ kinase, purified cytoplasmic domain PDGFR-b protein (Homo sapiens (Human), UniProt P09619). Description: PDGFRβ Kinase Assay. It is filed as biochemical. Particulars: 36 μM ATP, poly-Glu-Tyr (4:1) substrate, 60 minute incubation at 30° C., ELISA read at 492 nm. As for the experimental part: Biochemical PDGFRβ kinase assays were performed in 96 well microtiter plates that were coated overnight with 75 μg of poly-Glu-Tyr (4:1) in 10 mM Phosphate Buffered Saline (PBS), pH 7.4. The coated plates were washed with 2 mLs per well PBS+0.05% Tween-20 (PBS-T), blocked by incubation with PBS containing 1% BSA, then washed with 2 mLs per well PBS-T prior to starting the reaction. Reactions were carried out in 100 μL reaction volumes containing 36 μM ATP in kinase buffer (50 mM Hepes buffer pH 7.4, 20 mM MgCl2, 0.1 mM MnCl2 and 0.2 mM Na3VO4). Test compounds were reconstituted in 100% DMSO and added to the reaction to give a final DMSO concentration of 5%. Reactions were initiated by the addition 20 ul per well of kinase buffer containing 200-300 ng purified cytoplasmic domain PDGFR-b protein (Millipore). Following a 60 minute incubation at 30° C., the reactions were washed 2 mLs per well PBS-T. 100 μl of a monoclonal anti-phosphotyrosine antibody-peroxidase conjugate diluted 1:10,000 in PBS-T was added to the wells for 30 minutes. Following a 2 mLs per well wash with PBS-Tween-20, 100 μl of O-Phenylenediamine Dihydrochloride in phosphate-citrate buffer, containing urea hydrogen peroxide, was added to the wells for 7-10 minutes as a colorimetric substrate for the peroxidase. The reaction was terminated by the addition of 100 μl of 2.5N H2SO4 to each well and read using a microplate ELISA reader set at 492 nm. IC50 values for compound inhibition were calculated directly from graphs of optical density (arbitrary units) versus compound concentration following subtraction of blank values. […]
Sequence of PDGFRβ kinase, purified cytoplasmic domain PDGFR-b protein (P09619 554-1106): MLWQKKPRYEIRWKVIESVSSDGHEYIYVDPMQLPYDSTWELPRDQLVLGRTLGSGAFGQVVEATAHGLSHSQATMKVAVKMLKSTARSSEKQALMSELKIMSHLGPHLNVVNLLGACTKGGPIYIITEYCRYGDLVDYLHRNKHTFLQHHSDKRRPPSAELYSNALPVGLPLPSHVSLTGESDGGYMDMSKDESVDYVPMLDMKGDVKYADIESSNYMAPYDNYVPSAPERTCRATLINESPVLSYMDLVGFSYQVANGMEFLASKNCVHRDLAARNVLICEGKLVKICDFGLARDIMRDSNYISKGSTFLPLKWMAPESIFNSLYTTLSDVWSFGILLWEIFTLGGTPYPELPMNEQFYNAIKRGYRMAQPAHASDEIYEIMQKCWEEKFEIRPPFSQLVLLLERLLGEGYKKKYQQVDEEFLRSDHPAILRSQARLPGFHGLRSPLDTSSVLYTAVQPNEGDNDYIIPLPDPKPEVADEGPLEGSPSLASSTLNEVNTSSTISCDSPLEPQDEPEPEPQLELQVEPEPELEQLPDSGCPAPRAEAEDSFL

Sequence of VEGFR2 (KDR) kinase, purified cytoplasmic domain KDR protein (P35968 786-1356): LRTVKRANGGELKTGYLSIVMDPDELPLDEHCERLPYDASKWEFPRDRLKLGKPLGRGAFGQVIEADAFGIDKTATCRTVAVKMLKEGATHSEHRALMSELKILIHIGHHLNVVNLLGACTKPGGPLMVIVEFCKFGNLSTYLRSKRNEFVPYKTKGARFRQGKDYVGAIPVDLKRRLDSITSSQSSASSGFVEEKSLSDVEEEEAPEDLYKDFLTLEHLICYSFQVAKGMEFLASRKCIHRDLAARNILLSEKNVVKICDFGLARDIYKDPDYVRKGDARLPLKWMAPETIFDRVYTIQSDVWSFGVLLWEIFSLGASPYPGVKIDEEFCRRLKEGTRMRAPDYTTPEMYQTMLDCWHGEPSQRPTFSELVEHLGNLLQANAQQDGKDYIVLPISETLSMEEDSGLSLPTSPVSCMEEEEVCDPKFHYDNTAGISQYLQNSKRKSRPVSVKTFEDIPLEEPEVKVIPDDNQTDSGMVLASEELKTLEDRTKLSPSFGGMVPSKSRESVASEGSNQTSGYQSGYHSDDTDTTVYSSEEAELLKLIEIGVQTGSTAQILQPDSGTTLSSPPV

Usually IC50 stands for the midpoint of a concentration-inhibition curve. Take “4-(2-Methylsulfanyl-5,7-dihydro-pyrrolo[3,4-d]pyrimidin-6-yl)-pyridine-2-carboxylic acid (3-trifluoromethyl-phenyl)-amide [Example 126]”: in test [1], the IC50 was more than 10 µM.

`CC(C)c1cccc(NC(=O)c2cccc(N3CCc4nc(N)ncc4C3)c2)c1` [Example 2, 3-(2-amino-7,8-dihydropyrido[4,3-d]pyrimidin-6(5H)-yl)-N-(3-isopropylphenyl)benzamide]: half-maximal inhibition in test [2] (IC50) required 0.054 µM.

As to `Cc1cccc(NC(=O)c2cccc(N3CCc4nc(N)ncc4C3)c2)c1` [Example 3, 3-(2-amino-7,8-dihydropyrido[4,3-d]pyrimidin-6(5H)-yl)-N-(3-methylphenyl)benzamide], in test [2], the concentration for half-maximal inhibition (IC50) turned out to be 0.116 µM.

Compound `CC(C)(C)c1ccc(NC(=O)c2cccc(N3CCc4nc(N)ncc4C3)c2)cc1` [Example 4, 3-(2-amino-7,8-dihydropyrido[4,3-d]pyrimidin-6(5H)-yl)-N-(4-tert-butylphenyl)benzamide] showed a half-inhibitory concentration (IC50) in test [2] of 0.109 µM.

Take `Nc1ncc2c(n1)CCN(c1cccc(C(=O)Nc3cccc(C(F)(F)F)c3)c1)C2` [Example 5, 3-(2-amino-7,8-dihydropyrido[4,3-d]pyrimidin-6(5H)-yl)-N-[3-(trifluoromethyl)phenyl]benzamide]: inhibition in test [2] was half-maximal at 0.047 µM (IC50).

As to `Cc1ccc(NC(=O)c2cccc(N3CCc4nc(N)ncc4C3)c2)cc1` [Example 6, 3-(2-amino-7,8-dihydropyrido[4,3-d]pyrimidin-6(5H)-yl)-N-(4-methylphenyl)benzamide], it took 0.09 µM to reach half-maximal inhibition in test [2] (IC50).

For the compound `CCCCNC(=O)c1cccc(N2CCc3nc(N)ncc3C2)c1` [Example 16, 3-(2-amino-7,8-dihydropyrido[4,3-d]pyrimidin-6(5H)-yl)-N-butylbenzamide], in test [2], the IC50 is more than 10 µM.

The compound `CC(C)(C)C1CCC(NC(=O)c2cccc(N3CCc4nc(N)ncc4C3)c2)CC1` (centres unmarked) [Example 17, 3-(2-amino-7,8-dihydropyrido[4,3-d]pyrimidin-6(5H)-yl)-N-(4-tert-butylcyclohexyl)benzamide] registered an IC50 in test [2] of 0.246 µM.

As to `Nc1ncc2c(n1)CCN(c1cccc(C(=O)NCC3CCCCC3)c1)C2` [Example 18, 3-(2-amino-7,8-dihydropyrido[4,3-d]pyrimidin-6(5H)-yl)-N-(cyclohexylmethyl)benzamide], half-maximal inhibition in test [2] (IC50) was put at 0.602 µM.

For `Nc1ncc2c(n1)CCN(c1cccc(C(=O)NC3CCCC3)c1)C2` [Example 19, 3-(2-amino-7,8-dihydropyrido[4,3-d]pyrimidin-6(5H)-yl)-N-cyclopentylbenzamide], in test [2], the concentration for half-maximal inhibition (IC50) is more than 10 µM.

Consider `Cc1cccc(NC(=O)c2cccc(N3CCc4nc(N)ncc4C3)n2)c1` [Example 37, 6-(2-amino-7,8-dihydropyrido[4,3-d]pyrimidin-6(5H)-yl)-N-(3-methylphenyl)pyridine-2-carboxamide], for which the half-maximal inhibitory concentration (IC50) in test [2] was more than 10 µM.

In turn, `CSc1ncc2c(n1)CCN(c1cc(C)cc(C(=O)Nc3cccc(C(F)(F)F)c3)c1)C2` [Example 140, 3-methyl-5-[2-(methylthio)-7,8-dihydropyrido[4,3-d]pyrimidin-6(5H)-yl]-N-[3-(trifluoromethyl)phenyl]benzamide] had an IC50 in test [1] of more than 1 µM.

In test [1], `CSc1ncc2c(n1)CCN(c1cc(C)cc(C(=O)Nc3cccc(C(C)C)c3)c1)C2` [Example 142, N-(3-isopropylphenyl)-3-methyl-5-[2-(methylthio)-7,8-dihydropyrido[4,3-d]pyrimidin-6(5H)-yl]benzamide] yielded a half-maximal inhibitory concentration (IC50) of more than 1 µM.

`Cc1cc(C(=O)Nc2cccc(C(F)(F)F)c2)cc(N2CCc3nc(N)ncc3C2)c1` [Example 148, 3-(2-amino-7,8-dihydropyrido[4,3-d]pyrimidin-6(5H)-yl)-5-methyl-N-[3-(trifluoromethyl)phenyl]benzamide] displayed an IC50 in test [2] of 0.273 µM.

`Cc1ccc(C(=O)Nc2cccc(C(C)C)c2)cc1N1CCc2nc(N)ncc2C1` [Example 149, 3-(2-amino-7,8-dihydropyrido[4,3-d]pyrimidin-6(5H)-yl)-N-(3-isopropylphenyl)-4-methylbenzamide] came in with an IC50 in test [2] of 0.03 µM.

Take `Cc1cc(C(=O)Nc2cccc(C(C)C)c2)cc(N2CCc3nc(N)ncc3C2)c1` [Example 150, 3-(2-amino-7,8-dihydropyrido[4,3-d]pyrimidin-6(5H)-yl)-N-(3-isopropylphenyl)-5-methylbenzamide]: in test [2], half-maximal inhibition (IC50) required 0.059 µM.

`O=C(Nc1ccc(N2CCc3ccncc3C2)cc1)c1cccc(C(F)(F)F)c1` [Example 162, N-[4-(3,4-dihydro-2,7-naphthyridin-2(1H)-yl)phenyl]-3-(trifluoromethyl)benzamide] yielded an IC50 in test [2] of more than 10 µM.

In turn, `Cc1cccc(NC(=O)Nc2ccc(N3CCc4ccncc4C3)cc2)c1` [Example 163, 1-[4-(3,4-dihydro-2,7-naphthyridin-2(1H)-yl)phenyl]-3-(3-methylphenyl)urea] yielded a concentration for half-maximal inhibition (IC50) in test [2] of 1.56 µM.

In test [2], `O=C(Nc1ccccc1)Nc1ccc(N2CCc3ccncc3C2)cc1` [Example 164, 1-[4-(3,4-dihydro-2,7-naphthyridin-2(1H)-yl)phenyl]-3-phenylurea] registered a concentration for half-maximal inhibition (IC50) of more than 10 µM.

`Cc1ccc(NC(=O)Nc2ccc(N3CCc4ccncc4C3)cc2)cc1` [Example 165, 1-[4-(3,4-dihydro-2,7-naphthyridin-2(1H)-yl)phenyl]-3-(4-methylphenyl)urea]: the half-inhibitory concentration (IC50) in test [1] and in test [2] was more than 1 µM each time.

In the case of `Cc1cccc(NC(=O)Nc2ccc(N3CCc4ccncc4C3)c(C)c2)c1` [Example 166, 1-[4-(3,4-dihydro-2,7-naphthyridin-2(1H)-yl)-3-methylphenyl]-3-(3-methylphenyl)urea], half-maximal inhibition in test [2] (IC50) required 0.036 µM.

In test [2], `Cc1cccc(NC(=O)Nc2ccc(N3CCc4ccncc4C3)cc2C)c1` [Example 167, 1-[4-(3,4-dihydro-2,7-naphthyridin-2(1H)-yl)-2-methylphenyl]-3-(3-methylphenyl)urea] came in with an IC50 of 1.05 µM.

In test [2], `CC(C)c1cccc(NC(=O)c2cccc(N3CCc4ccncc4C3)c2)c1` [Example 168, 3-(3,4-dihydro-2,7-naphthyridin-2(1H)-yl)-N-(3-isopropylphenyl)benzamide] had an IC50 of 0.04 µM.

In test [2], `COC(=O)c1cncc2c1CCN(c1cccc(C(=O)Nc3cccc(C(C)C)c3)c1)C2` [Example 169, Methyl 7-(3-{[(3-isopropylphenyl)amino]carbonyl}phenyl)-5,6,7,8-tetrahydro-2,7-naphthyridine-4-carboxylate] came in with a concentration for half-maximal inhibition (IC50) of 0.015 µM.

With `Nc1ncc2c(n1)CCN(c1cccc(C(=O)Nc3ccc(F)c(C(F)(F)F)c3)c1)C2` [Example 176, 3-(2-amino-7,8-dihydropyrido[4,3-d]pyrimidin-6(5H)-yl)-N-[4-fluoro-3-(trifluoromethyl)phenyl]benzamide], the half-maximal inhibitory concentration (IC50) in test [2] was determined as 0.061 µM.
